Test results from ChEMBL document CHEMBL6092147, “Design of inhibitors of SARS-CoV-2 papain-like protease deriving from GRL0617: Structure-activity relationships” (Bioorg Med Chem, 2024).

Experiments:
[1] = target: T1, Replicase polyprotein 1ab (Severe acute respiratory syndrome coronavirus 2, UniProt P0DTD1); test: Inhibition of SARS-CoV-2 wild type PLpro extracted from Escherichia coli Rosetta 2(DE3) cells by fluorescence based analysis
[2] = target: T1, Replicase polyprotein 1ab; test: Inhibition of N-terminal 6-His-tagged SARS-CoV-2 PLpro BetaCoV/Wuhan/WIV04/2019 (1524 to 1883 residues) extracted from Escherichia coli BL21 (DE3) cells using Dabcyl-KTSAVLQ/SGFRKME as substrate pretreated for 30 mins followed by substrate addition measured for 1 hr by TR-FRET analysis

| SMILES | IC50 [1] | IC50 [2] |
| --- | --- | --- |
| C[C@H](c1cccc2ccccc12)N1CCC(C(=O)NCc2cc(F)cc(NC(=O)N3CCN(C)CC3)c2)CC1 | 990 nM | – |
| C[C@H](c1cccc2ccccc12)N1CCC(C(=O)NCc2ccc(S(N)(=O)=O)cc2)CC1 | – | 600 nM |
